{"source": "patent US6541238B1", "about": "“Recombinant cellulose synthase” (Board of Regents, The University of Texas Systems, priority 1990, dated 2003)", "key": {"[1]": {"system": "DNA from A. xylinum ATCC 53582 and ATCC 23769", "assay": "DNA-DNA hybridization of 17-mer oligonucleotide probes with HindIII-digested total DNA", "type": "binding, Acetobacter xylinum", "details": "stringent hybridization conditions; HindIII digest", "description": "Hybridization of the oligonucleotide probes with A. xylinum DNA was carried out using the eight oligonucleotides that were thus synthesized. […] In order to accomplish these studies, total DNA from A. xylinum ATCC 53582, A. xylinum ATCC 23769, and E. coil HB101 (a common strain of E. coli used in recombinant DNA experiments) was digested with HindIII and the fragments were separated on an agarose gel. After separation, the fragments were transferred by capillary action to a nylon membrane (GeneScreen; NEN Research Products) according to the procedure of Reed and Mann (1985). The DNA thus transferred was next hybridized with the ^32P-labeled oligonucleotide of the invention using standard procedures. Hybridization was accomplished in a solution with 5×SSC [1×SSC: 0.15M NaCl, 0.015M sodium citrate] at 45° C. for 16-24 hours. The filters were then washed with a solution containing reduced salt concentration. In all cases, the hybridization temperature was 5-7° C. below the dissociation temperature as described by Suggs, et al. (1981) applying the formula Td=2(A+T)+4(G+C)."}, "[2]": {"biological_target": "T1, 83 kd polypeptide of cellulose synthase (Komagataeibacter xylinus, UniProt P0CW87)", "T1 construct": "endogenous in cells; host or cells: Acetobacter xylinum ATCC 53582; membranes solubilized with detergent, enzyme purified by cellulose entrapment", "T1 sequence (P0CW87 1-723)": "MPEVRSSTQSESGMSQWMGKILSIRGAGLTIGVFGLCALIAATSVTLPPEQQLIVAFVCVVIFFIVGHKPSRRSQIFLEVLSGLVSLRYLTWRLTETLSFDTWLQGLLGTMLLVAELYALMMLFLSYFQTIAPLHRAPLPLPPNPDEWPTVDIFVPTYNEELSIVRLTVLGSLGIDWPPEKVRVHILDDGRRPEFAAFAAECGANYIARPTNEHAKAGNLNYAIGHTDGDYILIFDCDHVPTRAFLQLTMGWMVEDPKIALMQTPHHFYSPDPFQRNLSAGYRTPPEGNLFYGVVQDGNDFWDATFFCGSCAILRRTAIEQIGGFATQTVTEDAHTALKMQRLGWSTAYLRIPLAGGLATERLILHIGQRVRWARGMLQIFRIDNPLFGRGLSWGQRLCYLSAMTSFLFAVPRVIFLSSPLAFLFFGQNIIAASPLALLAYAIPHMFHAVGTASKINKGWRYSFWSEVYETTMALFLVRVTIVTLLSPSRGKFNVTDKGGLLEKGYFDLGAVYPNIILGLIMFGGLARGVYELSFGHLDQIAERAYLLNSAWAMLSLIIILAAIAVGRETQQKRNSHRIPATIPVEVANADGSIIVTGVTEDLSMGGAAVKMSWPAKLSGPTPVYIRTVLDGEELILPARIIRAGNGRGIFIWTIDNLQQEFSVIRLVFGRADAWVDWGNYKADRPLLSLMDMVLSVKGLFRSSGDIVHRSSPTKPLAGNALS", "T1 sequence (P0CW87 742-1550 partner limits assumed)": "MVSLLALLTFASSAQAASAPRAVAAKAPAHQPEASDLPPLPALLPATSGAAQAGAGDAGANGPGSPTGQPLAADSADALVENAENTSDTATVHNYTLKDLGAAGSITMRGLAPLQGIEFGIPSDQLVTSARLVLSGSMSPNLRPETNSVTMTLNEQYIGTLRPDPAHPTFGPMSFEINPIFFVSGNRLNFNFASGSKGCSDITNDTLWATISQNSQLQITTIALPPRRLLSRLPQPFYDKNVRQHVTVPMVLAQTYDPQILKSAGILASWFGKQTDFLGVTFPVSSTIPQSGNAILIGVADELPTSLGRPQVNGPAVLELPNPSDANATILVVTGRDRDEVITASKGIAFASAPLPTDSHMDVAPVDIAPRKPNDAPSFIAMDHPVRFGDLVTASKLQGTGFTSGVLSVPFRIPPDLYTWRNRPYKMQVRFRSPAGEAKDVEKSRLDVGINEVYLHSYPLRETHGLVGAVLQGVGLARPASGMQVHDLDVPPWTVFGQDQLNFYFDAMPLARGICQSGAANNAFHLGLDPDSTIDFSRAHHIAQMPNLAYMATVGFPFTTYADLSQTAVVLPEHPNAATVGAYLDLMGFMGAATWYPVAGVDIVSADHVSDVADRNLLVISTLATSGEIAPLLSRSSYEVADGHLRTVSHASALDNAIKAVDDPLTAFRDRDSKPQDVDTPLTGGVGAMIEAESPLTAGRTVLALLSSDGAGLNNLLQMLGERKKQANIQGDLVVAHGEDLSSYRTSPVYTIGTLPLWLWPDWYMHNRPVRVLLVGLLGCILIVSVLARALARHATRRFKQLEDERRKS", "assay": "Photoaffinity labeling of purified cellulose synthase with [β-32P]5N3UDP-glc", "type": "binding, Acetobacter xylinum", "description": "In addition to 20 μl of activator for cellulose synthase, each reaction mixture contained 50 mM Tris-HCl, 10 mM MgCl2, 1 mM CaCl2, 1 mM EDTA, the indicated protein quantity of enzyme sample, and 20 μM of [β-^32P]5N3UDP-glc (specific activity, 24 mCi/μmol) in a final reaction volume of 50 μl at pH 8.0-8.5. For competition experiments, the competitor, namely UDP-glc, was added at final concentrations of 0, 50, 100, and 300 μM, respectively. For saturation studies, [B-^32P]5N3UDP-glc was added at final concentrations of 20, 50, 100, 300 and 500 μM, respectively. […] Reactions were terminated by the addition of 0.3 ml of 7% perchloric acid. […] The Coomassie blue stained gel was dried and autoradiographed. Autoradiography was performed at −80° C. with Kodak X-Omat AR film and a Dupont Cronex intensifying screen. The molecular mass standards (Bio-Rad) were phosphorylase b (97kd), bovine serum albumin (66 kd), ovalbumin (45 kd), and carbonic anhydrase (31 kd).\nThe quantitation of the autoradiographs was measured by grey value discrimination of a digitized image (recorded on a Kontron/Zeiss IBAS Image Processing System)."}, "[3]": {"biological_target": "cellulose synthase of Acetobacter xylinum, Triton X-100-solubilized enzyme preparation (TS) (Acetobacter xylinum ATCC 53582)", "assay": "Con A-Sepharose 4B column chromatography of TS; bound enzyme eluted with 0.3 M methyl alpha-D-mannopyranoside"}, "[4]": {"biological_target": "T2, cellulose synthase (Komagataeibacter xylinus, UniProt P0CW87)", "T2 construct": "endogenous in cells; host or cells: Acetobacter xylinum; washed or trypsinized membranes, Triton X-100, n-octyl glucoside or digitonin extracts, entrapment pellets EP1 and EP2", "T2 sequence (P0CW87 1-723)": "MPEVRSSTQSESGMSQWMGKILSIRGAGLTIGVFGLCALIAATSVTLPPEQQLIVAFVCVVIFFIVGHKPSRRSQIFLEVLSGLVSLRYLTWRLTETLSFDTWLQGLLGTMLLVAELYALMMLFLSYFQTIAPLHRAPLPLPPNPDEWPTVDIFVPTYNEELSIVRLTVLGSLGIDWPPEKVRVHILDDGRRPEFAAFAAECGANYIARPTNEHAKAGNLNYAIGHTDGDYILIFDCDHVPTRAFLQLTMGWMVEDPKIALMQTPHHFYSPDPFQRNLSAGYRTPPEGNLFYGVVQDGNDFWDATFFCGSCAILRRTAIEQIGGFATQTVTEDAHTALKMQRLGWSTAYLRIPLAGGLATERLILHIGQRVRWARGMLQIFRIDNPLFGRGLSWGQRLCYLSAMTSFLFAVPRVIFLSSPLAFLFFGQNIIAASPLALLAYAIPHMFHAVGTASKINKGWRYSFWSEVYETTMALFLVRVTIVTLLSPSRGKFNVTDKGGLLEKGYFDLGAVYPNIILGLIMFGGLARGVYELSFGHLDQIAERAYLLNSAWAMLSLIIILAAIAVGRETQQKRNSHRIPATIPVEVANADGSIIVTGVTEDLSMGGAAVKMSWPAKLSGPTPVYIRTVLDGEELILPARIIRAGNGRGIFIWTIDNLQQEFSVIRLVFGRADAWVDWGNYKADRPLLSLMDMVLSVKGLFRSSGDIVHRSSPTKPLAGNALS", "T2 sequence (P0CW87 742-1550 partner limits assumed)": "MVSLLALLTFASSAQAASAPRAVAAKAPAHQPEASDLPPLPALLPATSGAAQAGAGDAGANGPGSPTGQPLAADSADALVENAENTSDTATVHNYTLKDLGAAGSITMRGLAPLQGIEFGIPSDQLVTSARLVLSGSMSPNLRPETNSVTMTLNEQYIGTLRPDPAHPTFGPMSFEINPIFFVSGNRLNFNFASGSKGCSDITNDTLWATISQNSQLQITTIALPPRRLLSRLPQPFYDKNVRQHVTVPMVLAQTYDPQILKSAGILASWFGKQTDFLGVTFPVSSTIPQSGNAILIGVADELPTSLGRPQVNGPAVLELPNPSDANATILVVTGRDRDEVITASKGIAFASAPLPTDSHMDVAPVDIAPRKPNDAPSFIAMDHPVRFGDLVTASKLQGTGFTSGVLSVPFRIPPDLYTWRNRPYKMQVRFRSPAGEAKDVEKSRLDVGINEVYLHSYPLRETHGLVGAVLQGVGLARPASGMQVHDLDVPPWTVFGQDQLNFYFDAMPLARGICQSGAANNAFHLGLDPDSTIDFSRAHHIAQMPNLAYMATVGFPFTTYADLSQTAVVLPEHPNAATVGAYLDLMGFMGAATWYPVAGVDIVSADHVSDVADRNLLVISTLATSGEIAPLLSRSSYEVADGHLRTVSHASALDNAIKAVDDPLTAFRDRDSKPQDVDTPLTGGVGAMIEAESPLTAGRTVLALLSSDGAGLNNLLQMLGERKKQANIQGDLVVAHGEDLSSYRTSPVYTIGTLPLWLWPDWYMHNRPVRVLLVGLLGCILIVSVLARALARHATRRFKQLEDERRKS", "assay": "Cellulose synthase enzyme assay (UDP-[14C]glc into alkali-insoluble material)", "type": "biochemical, Acetobacter xylinum", "description": "Enzyme Assay—Assays contained a final volume of […]: 20 μl of 0.5 M Tris-HCl (pH 9.6) containing 50 mM MgCl2 and 5 mM EDTA, 20 μl of 0.1 M MgCl2, 20 μl of 10 MM CaCl2, 25 μl of TME buffer, 25 μl of H2O, 20 μl of crude Gx, and 50 μl of enzyme sample. […] The reaction was stopped with 2 ml of 0.5 M NaOH, and the radioactivity in alkali-insoluble materials was counted after filtration through glass-fiber filters, as described in detail (Bureau and Brown 1987).\nProtein Determination—Protein concentrations were determined according to the method of Bradford (1976), using the protein assay kit of Bio-Rad Laboratories. A modification of the Lowry procedure (Markwell 1978) was used only with membrane preparations. In both cases, bovine serum albumin was used as a standard."}}, "data": [{"molecule": "5′-ATGTCICAGTGGATGGG-3′ [83-1G]", "values": [{"measurement": "hybridization (homology) with A. xylinum DNA", "setting": "[1]", "value": "showed homology with a single HindIII fragment"}]}, {"molecule": "[N-]=[N+]=Nc1cn([C@@H]2O[C@H](COP(=O)(O)OP(=O)(O)O[C@H]3O[C@H](CO)[C@@H](O)[C@H](O)[C@H]3O)[C@@H](O)[C@H]2O)c(=O)[nH]c1=O", "note": "[[β-^32P]5N3UDP-glc]", "values": [{"measurement": "probe concentration at which saturation of photoinsertion was being obtained", "setting": "[2]; 83 kd protein band", "value": "above 100 μM"}, {"measurement": "Kd", "setting": "[2]; probe 20-500 μM, 83 kd polypeptide, read-out: kd value, saturation of cellulose synthase photolabeling", "value": 68, "unit": "µM"}]}, {"molecule": "Nc1nc2c(ncn2[C@@H]2O[C@@H]3COP(=O)(O)O[C@H]4[C@@H](O)[C@H](n5cnc6c(=O)[nH]c(N)nc65)O[C@@H]4COP(=O)(O)O[C@H]3[C@H]2O)c(=O)[nH]1", "note": "[c-di-GMP, bis-(3′,5′)-cyclic diguanylic acid]", "values": [{"measurement": "increase of photoincorporation into the 83 kd band in the presence of activator", "setting": "[2]; purified preparation, FIG. 8 lane 6 vs lane 5", "value": 45, "unit": "%"}]}, {"molecule": "Concanavalin A (Con A) Sepharose 4B (from UniProt P02866 30-281)", "values": [{"measurement": "total enzyme activity recovered on elution from the Con A-Sepharose column", "setting": "[3]", "value": "> 90", "unit": "%"}]}, {"molecule": "trypsin: trypsin (EC 3.4.21.4), Sigma (protein, UniProt P00760 24-246, looked up) Serine protease 1: IVGGYTCGANTVPYQVSLNSGYHFCGGSLINSQWVVSAAHCYKSGIQVRLGEDNINVVEGNEQFISASKSIVHPSYNSNTLNNDIMLIKLKSAASLNSRVASISLPTSCASAGTQCLISGWGNTKSSGTSYPDVLKCLKAPILSDSSCKSAYPGQITSNMFCAGYLEGGKDSCQGDSGGPVVCSGKLQGIVSWGSGCAQKNKPGVYTKVCNYVSWIKQTIASN", "values": [{"measurement": "effect of trypsin on enzyme activity of washed membranes or TS", "setting": "[4]; 30 minutes at 25° C.", "value": "did not effect enzyme activity"}, {"measurement": "effect of trypsin on enzyme activity of the EP1 fraction from DS", "setting": "[4]; 1 hour at 25° C.", "value": "enzyme activity was still maintained"}]}]}
